Measurements from patent US20230167058A1, “GPX4 COMPOUNDS AND COMPOSITIONS AND METHODS OF TREATMENT USING SAME” (THE TRUSTEES OF COLUMBIA UNIVERSITY IN THE CITY OF NEW YORK, priority 2020, published 2023).

What was measured:
HT1080 cells = experiment: Single-point ferroptosis test, cellular viability (CellTiter-Glo); format: cell-based, human; details: 125 μM LOC1886, 48 h
Method: 1000 cells of each HT-1080 or G401 cell line were plated 36 μL per well of a 384-well plate on day 1. The remaining cells were immediately tested for Western Blot (to monitor GPX4 protein overexpression level). For dose response curves, compounds were dissolved in DMSO and a 12-point, twofold dilution series was prepared. The compounds were then diluted 1:50 in media and 4 μL was added to each well of the plates on day 2. Final concentrations of the compounds on the 384-well plate started from 2 μM for RSL3/ML162 and 20 μM for IKE/FIN56/FINO2. For single-point ferroptosis test, HT1080 cells were treated either with 12.5 μM RSL3 or 125 μM LOC1886, with or without supplementation of 2 μM Fer-1. After 48 h of treatment, the viability of cells was measured using 1:1 dilution of the CellTiter-Glo luminescent reagent (Promega G7573) with media, which was read on a Victor 5 plate reader after 10 min of shaking at room temperature on day 4. The intensity of luminescence was normalized to that of DMSO control. Results were quantified using GraphPad Prism 9. Based on the dose-response curve of viability, area under curves were calculated and reported in bar graph formats with standard errors using GraphPad Prism 9.

GPX4^U46C [1] = target: T1, GPX4^U46C (Homo sapiens, UniProt P36969, U73C); experiment: Co-crystal structure of GPX4^U46C with inhibitor; format: binding
T1 construct: His6 (N, cleaved yes); made in house; host or cells: E. coli BL21-Gold (DE3), M9 minimal medium with 15NH4Cl
T1 sequence (P36969 33-197 U73C): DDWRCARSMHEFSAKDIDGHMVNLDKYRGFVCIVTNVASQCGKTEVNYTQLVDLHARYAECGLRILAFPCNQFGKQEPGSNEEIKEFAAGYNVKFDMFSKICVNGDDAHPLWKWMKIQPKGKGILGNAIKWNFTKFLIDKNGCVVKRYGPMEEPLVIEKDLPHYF
Method: GPX4^U46C was pre-incubated with the covalent inhibitors before crystallization using the following specifically optimized condition.
RSL3 and ML162 condition: 50 μM GPX4^U46C incubated with 150 μM RSL3 or ML162 in the reaction buffer (20 mM Tris pH 9.0, 100 mM NaCl, 3 mM TCEP, 1.5% DMSO) at 15° C. for 1 hour before transferring to 4° C. overnight. CDS9 condition: 25 μM GPX4^U46C incubated with 2 mM CDS9 in the reaction buffer (100 mM Tris pH 9.0, 300 mM NaCl, 1 mM TCEP, 2% DMSO) at 37° C. for 2 hours before transferring to 4° C. overnight. TMT10 condition: 25 μM GPX4^U46C incubated with 2 mM TMT10 in the reaction buffer (100 mM Tris pH 9.0, 300 mM NaCl, 2% glycerol, 2% DMSO) at 37° C. for 4 hours before transferring to 4° C. overnight. MAC-5576 condition: 50 μM GPX4^U46C protein was incubated with 500 μM MAC-5576 in the reaction buffer (100 mM Tris pH 9.0, 300 mM NaCl, and 3 mM TCEP, 5% DMSO) at RT for 1 hour before transferring to 4° C. overnight.
After confirmation of covalent binding using intact protein MALDI MS analysis, the protein-inhibitor complex were exchanged into crystallization buffer (10 mM Tris pH 8.0, 5 mM TCEP) and concentrated to 5 mg/ml.

[2] = test system: GPX4 protein level in HT-1080 cells; experiment: Western blot GPX4 degradation study in HT-1080; format: cell-based, human; details: 1 μM RSL3, 1 μM ML162, 10 μM FIN56, 10 h, with 100 μM α-tocopherol
In short: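 HT-1080 cells were co-treated 10 h with 100 μM α-tocopherol plus compound (RSL3 or ML162 at 1 μM; IKE or FIN56 at 10 μM) or vehicle. RIPA lysates were Western blotted for GPX4, with actin and GAPDH as loading references. Blots were quantified by infrared imaging.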

GPX4^U46C [3] = target: T1, GPX4^U46C; experiment: Inhibition of the activity of purified GPX4^U46C protein (NADPH-coupled); format: biochemical; details: 20 μM RSL3 vs DMSO
Method: Similar to the determination of cellular GPX4-specific activity, by coupling the oxidation of NADPH to NADP+ by oxidized glutathione produced by GPX4 in the presence of glutathione reductase, GPX4^U46C activity was assessed by measuring the decrease in NADPH (absorbance at 340 nm). GPX4 reaction buffer was prepared by adding 0.05 U/mL glutathione reductase, 210 μM GSH, 250 μM NADPH, 50 μM Cumene-OOH into 50 mM Tris HCl, pH 8.0, 0.5 mM EDTA. 15 μM His-tagged-GPX4^U46C pre-incubated with DMSO (vehicle) or 20 μM RSL3 was added to the GPX4 reaction buffer and the absorbance at 340 nm was monitored for the following 10 min. Results were quantified using GraphPad Prism 9.

SMILES | induction of ferroptosis (HT1080 cells) | binding site in co-crystal structure (GPX4^U46C [1]) | degradation of endogenous GPX4 [2] | enzymatic activity of GPX4^U46C after incubation (GPX4^U46C [3])
COc1cccc2[nH]c(C(=O)n3ccnc3)cc12 [LOC1886] | able to induce ferroptosis to HT1080 cells |  |  | 
COC(=O)c1ccc([C@@H]2c3[nH]c4ccccc4c3C[C@@H](C(=O)OC)N2C(=O)CCl)cc1 [RSL3, (1S, 3R)-RSL3] |  | bind to cys66 | significantly promoted degradation of GPX4 | inhibited the capability of GPX4 to reduce phospholipid hydroperoxides
